Test [1] deals with T1, intracellular SHP-1 (Homo sapiens, UniProt P29350).
T1 construct: endogenous in cells; host or cells: Jurkat
In words: tyrosine phosphorylation of SHP-1 substrates in Jurkat cells (SDS-PAGE/Western blotting, densitometry). It counts as cell-based. To be noted: for level capable of inhibiting intracellular SHP-1: Jurkat T cells. The method, then: (§1) Jurkat cells in culture medium (3×10^6 cells/ml, 1 ml/tube) were treated with agents for designated times at room temperature. After brief centrifuging in a microfuge (4,000 rpm, 2 min), the cell pellet was lysed on ice for 30 min in 1001 of cold lysis buffer (1% NP40, 50 mM Tris, pH 7.4, 150 mM NaCl, 20 mM NaF, 0.2 mM Na3VO4 and 1 mM Na3MO4) containing a cocktail of proteinase inhibitors (Sigma, 1 tablet/10 ml). The lysates were cleared by centrifuging (14,000 rpm, 10 min) in a microfuge at 4° C. to remove insoluble parts, mixed with equal volume of 2×SDS-PAGE sample buffer, boiled for 5 min and analyzed (˜3×10^5 cells/well) by SDS-PAGE/Western blotting. Relative intensities of phosphotyrosine bands were quantified through densitometry analysis.
as §1, with “100 μl” for “1001”, “blotting as described previously (23, 24).” for “blotting.”
as §1, with “100 μl” for “1001”, “blotting as described previously (17, 18).” for “blotting.”

In test [2] the target is T2, recombinant SHP-1 (Homo sapiens, UniProt P29350).
T2 construct: Recombinant protein of SHP-1 PTPase catalytic domain was described
T2 sequence (P29350 244-515 limits assumed): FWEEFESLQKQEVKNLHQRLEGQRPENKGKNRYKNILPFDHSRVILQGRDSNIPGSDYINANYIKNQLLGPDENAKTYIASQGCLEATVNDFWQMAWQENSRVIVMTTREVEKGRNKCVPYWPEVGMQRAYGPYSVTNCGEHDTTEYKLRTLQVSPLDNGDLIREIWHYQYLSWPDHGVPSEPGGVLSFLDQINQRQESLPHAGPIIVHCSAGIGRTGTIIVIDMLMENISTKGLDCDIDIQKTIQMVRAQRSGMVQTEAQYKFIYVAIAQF
The test can be described thus: rapid in vitro SHP-1 PTPase assay (DIFMUP fluorescence substrate). It counts as biochemical. The note with it: L5 and analogs, 1 μg/well; FIG. 12A. The method, then: Recombinant protein of SHP-1 PTPase catalytic domain was described and stored in Tris buffer (25 mM Tris, pH7.5, 1 mM EDTA, 2 μM 2-ME, 25% glycerol) at −80° C. Fluorescence substrate DIFMUP (6,8-difluoro-4 methylumbelliferyl phosphate) was purchased (Molecular Probes). SSG was reported previously (21-23) and stored at 4° C. in darkness prior to use. Human and mouse IFNγ ELISPOT Kit (R & D System), CD4^+ Cell Intracellular IFNγ Detection Kit (BD Bioscience) and CD8^+ Cell Intracellular IFNγ Detection Kit (BD Bioscience) were purchased from commercial sources. Human Jurkat T cell line (26) and murine B16 melanoma cell line (ATCC) were maintained in […] culture medium supplemented with 10% fetal calf serum (FCS). Antibodies against pLck-pY394 (Cell Signaling), pLck-pY505 (Cell Signaling), pZap70 (pY319, BD Biosciences), pSlp76 (pY128, BD Biosciences) and pLat (pY226, BD Biosciences) were purchased from commercial sources.
A rapid SHP-1 PTPase assay was developed for screening the compounds in a commercial library of 34,000 drug-like small chemicals (Chembridge, Mass.). Briefly, compounds of the library (1 μg/well in […]) were placed in 96-well plates (Falcon, 353072) and mixed with recombinant SHP-1 protein (0.1 μg/well) in […] of HEPES buffer (50 mM HEPS, pH 7.5, 150 mM NaCl, 1 mM EDTA, 0.2 mM DTT and 0.1 mg/ml BSA). The plates were incubated at room temperature for 10 minutes prior to the addition of fluorescence substrate DIFMUP (40 μM stock in HEPES buffer, 10 μl/well) to initiate PTPase reaction. Upon completion of PTPase reaction at room temperature for 1 hr in darkness, fluorescence signal of individual wells were recorded using a Vector^2 Multilabel Counter (Vector, CA). They were compared to that of control SHP-1 PTPase reaction (˜10,000 units of fluorescence signal) in the absence of any compound (100%) for calculating relative SHP-1 inhibition induced by the compounds after subtracting the background signal (˜500 units of fluorescence signal) of the substrate.
To evaluate their SHP-1 inhibitory activity, the analogs (1 μg/well in 0.2 μl DMSO) were aliquot individually to 96-well plates (Falcon, 353072) and mixed with recombinant SHP-1 protein (0.1 μg/well) in 90 μl of HEPES buffer (50 mM HEPS, pH 7.5, 150 mM NaCl, 1 mM EDTA, 0.2 mM DTT and 0.1 mg/ml BSA). The plates were incubated at room temperature for 10 minutes prior to the addition of fluorescence substrate DIFMUP (40 μM stock in HEPES buffer, 10 μl/well) to initiate PTPase reaction. Upon completion of PTPase reaction at room temperature for 1 hr in darkness, fluorescence signal of individual wells were recorded using a Vector^2 Multilabel Counter (Vector, CA). […]

The structures appear in SMILES notation.

T1 sequence (P29350 whole entry): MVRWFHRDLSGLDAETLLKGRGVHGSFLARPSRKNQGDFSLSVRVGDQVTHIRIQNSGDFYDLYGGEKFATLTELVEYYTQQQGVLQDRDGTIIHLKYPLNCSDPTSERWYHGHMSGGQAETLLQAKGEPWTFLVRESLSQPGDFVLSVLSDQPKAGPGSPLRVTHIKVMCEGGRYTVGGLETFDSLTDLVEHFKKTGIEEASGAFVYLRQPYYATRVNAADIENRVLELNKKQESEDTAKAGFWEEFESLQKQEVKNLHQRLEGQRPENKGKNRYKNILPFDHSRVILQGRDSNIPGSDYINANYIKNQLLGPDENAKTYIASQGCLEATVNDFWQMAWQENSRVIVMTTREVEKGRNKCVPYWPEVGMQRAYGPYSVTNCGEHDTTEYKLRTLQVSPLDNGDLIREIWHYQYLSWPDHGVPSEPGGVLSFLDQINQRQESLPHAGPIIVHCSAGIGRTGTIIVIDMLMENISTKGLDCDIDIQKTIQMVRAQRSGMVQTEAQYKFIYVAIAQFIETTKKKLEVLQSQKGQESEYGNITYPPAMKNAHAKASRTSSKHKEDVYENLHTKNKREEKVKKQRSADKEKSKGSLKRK

Consider `O=C1C=CC(=O)C(c2cc(Cl)ccc2Cl)=C1` [L5], for which the pLck-pY394 induction in test [1] (0.01 μg/ml, 10 min) is 2-3 fold; in test [1] (0.1, 1 or 3 μg/ml, 10 min), over 4 folds. Moreover, the pSlp76 level entry in test [1] (0.01, 0.1, 1 or 3 μg/ml) is on record as “obviously increased”. In addition, the pZap70 level result in test [1] (0.01, 0.1, 1 or 3 μg/ml) was “obviously increased”. Besides, the “dose effective in inducing pLck-pY394 (lowest / only effective dose)” value in test [1] (10 min treatment) is 0.01 μg/ml. The entries for the “level capable of inhibiting intracellular SHP-1” value in test [1] and in test [1] (molar equivalent) were 10 ng/mL and about 40 nM, respectively. For the same molecule, in test [1] (L5-treated Jurkat cells), the pLAT level entry was “induced”. Moreover, the “potency relative to SSG” value in test [1] (by weight) was “approximately 1,000 fold”; in test [1] (in equal molar ratios), about 350 fold. The “pLck-pY394 induction versus untreated control” value in test [1] (lead compounds, 10 min, densitometry, FIG. 2) is on record as about 10 fold. Besides, the “inhibition of phosphatase activity of recombinant SHP-1” value in test [2] was “completely or almost completely inhibited”.
